PMC5564600 (Oncotarget, 2017)

What was measured:
Experiment in all cases: biochemical
Type in all cases: binding
[1] = molecular target: T1, panel of 442 kinases (Homo sapiens, UniProt P36888, R834Q); conditions: kinase FLT3(R834Q); for remaining activity at 1 µM: read-out: % of control at 1 µM
T1 construct: purchased Ambit Biosciences (scanMAXX KINOMEscan)
T1 sequence (P36888 27-993 R834Q): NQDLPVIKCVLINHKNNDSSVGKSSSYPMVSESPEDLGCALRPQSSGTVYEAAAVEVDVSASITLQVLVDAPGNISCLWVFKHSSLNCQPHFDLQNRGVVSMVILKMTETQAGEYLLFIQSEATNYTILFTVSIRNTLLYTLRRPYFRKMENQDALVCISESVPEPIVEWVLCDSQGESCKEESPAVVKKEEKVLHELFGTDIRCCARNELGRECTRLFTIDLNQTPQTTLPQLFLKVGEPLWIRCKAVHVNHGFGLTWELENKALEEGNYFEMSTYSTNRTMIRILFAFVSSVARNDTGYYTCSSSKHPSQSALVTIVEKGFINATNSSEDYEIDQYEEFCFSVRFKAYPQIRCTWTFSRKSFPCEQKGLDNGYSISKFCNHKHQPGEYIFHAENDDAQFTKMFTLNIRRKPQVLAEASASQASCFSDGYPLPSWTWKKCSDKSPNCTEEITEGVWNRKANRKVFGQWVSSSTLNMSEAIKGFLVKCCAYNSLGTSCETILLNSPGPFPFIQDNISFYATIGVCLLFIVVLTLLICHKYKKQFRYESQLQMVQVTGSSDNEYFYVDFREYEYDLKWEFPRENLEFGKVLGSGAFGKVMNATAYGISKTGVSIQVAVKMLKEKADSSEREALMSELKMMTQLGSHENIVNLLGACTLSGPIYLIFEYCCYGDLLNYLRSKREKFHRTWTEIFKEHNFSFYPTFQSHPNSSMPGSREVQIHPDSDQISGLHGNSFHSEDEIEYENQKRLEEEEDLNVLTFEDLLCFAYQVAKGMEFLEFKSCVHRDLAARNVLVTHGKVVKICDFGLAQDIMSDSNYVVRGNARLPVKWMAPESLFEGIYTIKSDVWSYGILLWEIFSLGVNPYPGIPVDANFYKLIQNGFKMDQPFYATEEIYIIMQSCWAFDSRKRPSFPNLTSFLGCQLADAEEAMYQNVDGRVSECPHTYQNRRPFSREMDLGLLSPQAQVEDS

[2] = molecular target: T2, panel of 442 kinases (Homo sapiens, UniProt P08581); conditions: kinase MET; for remaining activity at 1 µM: read-out: % of control at 1 µM
T2 construct: purchased Ambit Biosciences (scanMAXX KINOMEscan)
T2 sequence (P08581 25-1390): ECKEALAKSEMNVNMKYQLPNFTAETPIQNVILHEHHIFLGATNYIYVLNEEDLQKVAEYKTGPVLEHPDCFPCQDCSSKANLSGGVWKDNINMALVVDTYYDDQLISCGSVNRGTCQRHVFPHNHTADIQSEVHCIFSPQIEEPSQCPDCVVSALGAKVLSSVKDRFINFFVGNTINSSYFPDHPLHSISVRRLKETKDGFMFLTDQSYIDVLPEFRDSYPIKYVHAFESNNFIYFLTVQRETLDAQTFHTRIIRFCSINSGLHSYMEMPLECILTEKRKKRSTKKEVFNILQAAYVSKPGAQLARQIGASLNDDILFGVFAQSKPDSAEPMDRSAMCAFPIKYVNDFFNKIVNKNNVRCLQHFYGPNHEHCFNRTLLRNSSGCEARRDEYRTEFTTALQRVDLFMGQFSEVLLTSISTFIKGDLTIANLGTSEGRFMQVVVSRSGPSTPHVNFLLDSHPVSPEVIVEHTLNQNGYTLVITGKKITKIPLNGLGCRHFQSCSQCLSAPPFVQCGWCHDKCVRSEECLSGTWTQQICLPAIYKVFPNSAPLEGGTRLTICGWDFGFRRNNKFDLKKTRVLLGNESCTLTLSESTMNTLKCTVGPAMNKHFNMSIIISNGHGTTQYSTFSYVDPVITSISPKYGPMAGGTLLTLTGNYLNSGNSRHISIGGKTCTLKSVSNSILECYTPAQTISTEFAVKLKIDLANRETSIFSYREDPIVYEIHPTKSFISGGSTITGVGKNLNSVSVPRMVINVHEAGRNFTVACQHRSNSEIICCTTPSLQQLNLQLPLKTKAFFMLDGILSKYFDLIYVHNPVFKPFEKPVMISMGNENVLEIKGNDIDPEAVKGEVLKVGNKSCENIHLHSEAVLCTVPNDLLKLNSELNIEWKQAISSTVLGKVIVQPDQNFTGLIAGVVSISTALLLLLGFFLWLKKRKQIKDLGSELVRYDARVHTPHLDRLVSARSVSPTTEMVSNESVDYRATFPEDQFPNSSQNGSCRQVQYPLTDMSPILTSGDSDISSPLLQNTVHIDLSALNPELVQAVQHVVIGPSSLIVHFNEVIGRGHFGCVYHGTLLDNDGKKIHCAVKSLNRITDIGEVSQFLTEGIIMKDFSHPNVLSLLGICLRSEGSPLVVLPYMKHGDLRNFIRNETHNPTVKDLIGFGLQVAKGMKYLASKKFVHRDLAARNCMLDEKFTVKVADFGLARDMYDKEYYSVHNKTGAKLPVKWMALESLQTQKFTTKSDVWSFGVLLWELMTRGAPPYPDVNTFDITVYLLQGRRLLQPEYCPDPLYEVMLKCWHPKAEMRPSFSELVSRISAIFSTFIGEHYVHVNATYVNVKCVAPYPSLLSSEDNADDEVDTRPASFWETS

[3] = molecular target: T3, panel of 442 kinases (Homo sapiens, UniProt P29323); conditions: EPHB2; for remaining activity at 1 µM: read-out: % of control at 1 µM
T3 construct: purchased Ambit Biosciences (scanMAXX KINOMEscan)
T3 sequence (P29323 19-1055): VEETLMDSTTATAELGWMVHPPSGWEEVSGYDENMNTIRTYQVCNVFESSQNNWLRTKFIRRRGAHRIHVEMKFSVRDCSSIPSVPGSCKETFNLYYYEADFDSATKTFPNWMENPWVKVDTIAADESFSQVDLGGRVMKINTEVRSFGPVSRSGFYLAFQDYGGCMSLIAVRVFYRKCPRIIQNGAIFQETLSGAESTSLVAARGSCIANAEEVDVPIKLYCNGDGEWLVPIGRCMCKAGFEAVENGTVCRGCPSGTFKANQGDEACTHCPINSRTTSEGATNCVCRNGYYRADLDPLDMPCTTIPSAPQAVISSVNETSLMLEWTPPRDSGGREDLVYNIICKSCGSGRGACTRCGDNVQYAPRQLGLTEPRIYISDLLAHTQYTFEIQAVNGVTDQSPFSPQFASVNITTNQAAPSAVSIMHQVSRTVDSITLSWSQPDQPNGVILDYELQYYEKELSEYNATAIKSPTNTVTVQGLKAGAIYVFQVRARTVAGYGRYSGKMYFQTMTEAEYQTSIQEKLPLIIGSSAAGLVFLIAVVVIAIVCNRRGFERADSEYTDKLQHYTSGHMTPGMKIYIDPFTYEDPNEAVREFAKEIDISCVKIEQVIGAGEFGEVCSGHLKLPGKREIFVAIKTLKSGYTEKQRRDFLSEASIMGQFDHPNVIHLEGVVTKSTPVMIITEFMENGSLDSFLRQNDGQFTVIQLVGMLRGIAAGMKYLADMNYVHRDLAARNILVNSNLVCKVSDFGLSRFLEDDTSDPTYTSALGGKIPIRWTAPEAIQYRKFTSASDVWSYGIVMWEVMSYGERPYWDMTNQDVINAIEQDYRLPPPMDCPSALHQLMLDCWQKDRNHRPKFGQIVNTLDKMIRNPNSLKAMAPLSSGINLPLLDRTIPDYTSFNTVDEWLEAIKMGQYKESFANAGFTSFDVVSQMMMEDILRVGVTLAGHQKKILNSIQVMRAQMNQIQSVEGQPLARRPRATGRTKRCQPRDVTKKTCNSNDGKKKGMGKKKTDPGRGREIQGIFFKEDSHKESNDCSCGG

[4] = molecular target: T4, panel of 442 kinases (Homo sapiens, UniProt Q9UQM7); conditions: CAMK2A; for remaining activity at 1 µM: read-out: % of control at 1 µM
T4 construct: purchased Ambit Biosciences (scanMAXX KINOMEscan)
T4 sequence (Q9UQM7 whole entry): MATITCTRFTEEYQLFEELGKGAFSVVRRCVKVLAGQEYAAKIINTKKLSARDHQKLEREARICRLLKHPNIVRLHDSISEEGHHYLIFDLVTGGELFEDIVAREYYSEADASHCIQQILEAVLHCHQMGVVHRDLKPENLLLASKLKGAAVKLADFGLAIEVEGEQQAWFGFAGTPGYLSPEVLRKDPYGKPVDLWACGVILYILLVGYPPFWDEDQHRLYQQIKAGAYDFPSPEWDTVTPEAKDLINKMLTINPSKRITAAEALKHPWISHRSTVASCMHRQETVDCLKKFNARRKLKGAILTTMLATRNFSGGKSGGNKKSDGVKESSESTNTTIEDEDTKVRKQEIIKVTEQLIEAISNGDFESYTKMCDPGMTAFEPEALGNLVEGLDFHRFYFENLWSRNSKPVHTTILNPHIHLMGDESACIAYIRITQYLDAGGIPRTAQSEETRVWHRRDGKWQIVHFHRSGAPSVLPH

[5] = molecular target: T5, panel of 442 kinases (Homo sapiens, UniProt Q9UQB9); conditions: AURKC; for remaining activity at 1 µM: read-out: % of control at 1 µM
T5 construct: purchased Ambit Biosciences (scanMAXX KINOMEscan)
T5 sequence (Q9UQB9 1-309): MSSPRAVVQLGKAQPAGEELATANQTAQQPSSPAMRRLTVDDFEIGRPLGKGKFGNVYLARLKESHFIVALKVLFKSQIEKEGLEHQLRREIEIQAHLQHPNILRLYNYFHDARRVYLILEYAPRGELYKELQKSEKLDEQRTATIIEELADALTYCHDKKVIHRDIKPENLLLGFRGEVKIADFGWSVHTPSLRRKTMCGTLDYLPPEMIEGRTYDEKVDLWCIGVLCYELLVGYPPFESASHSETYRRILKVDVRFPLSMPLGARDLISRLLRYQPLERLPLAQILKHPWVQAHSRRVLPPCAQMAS

[6] = molecular target: T6, panel of 442 kinases (Homo sapiens, UniProt Q9NYL2); conditions: kinase ZAK; for remaining activity at 1 µM: read-out: ZAK (% of control at 1 µM)
T6 construct: purchased Ambit Biosciences (scanMAXX KINOMEscan)
T6 sequence (Q9NYL2 whole entry): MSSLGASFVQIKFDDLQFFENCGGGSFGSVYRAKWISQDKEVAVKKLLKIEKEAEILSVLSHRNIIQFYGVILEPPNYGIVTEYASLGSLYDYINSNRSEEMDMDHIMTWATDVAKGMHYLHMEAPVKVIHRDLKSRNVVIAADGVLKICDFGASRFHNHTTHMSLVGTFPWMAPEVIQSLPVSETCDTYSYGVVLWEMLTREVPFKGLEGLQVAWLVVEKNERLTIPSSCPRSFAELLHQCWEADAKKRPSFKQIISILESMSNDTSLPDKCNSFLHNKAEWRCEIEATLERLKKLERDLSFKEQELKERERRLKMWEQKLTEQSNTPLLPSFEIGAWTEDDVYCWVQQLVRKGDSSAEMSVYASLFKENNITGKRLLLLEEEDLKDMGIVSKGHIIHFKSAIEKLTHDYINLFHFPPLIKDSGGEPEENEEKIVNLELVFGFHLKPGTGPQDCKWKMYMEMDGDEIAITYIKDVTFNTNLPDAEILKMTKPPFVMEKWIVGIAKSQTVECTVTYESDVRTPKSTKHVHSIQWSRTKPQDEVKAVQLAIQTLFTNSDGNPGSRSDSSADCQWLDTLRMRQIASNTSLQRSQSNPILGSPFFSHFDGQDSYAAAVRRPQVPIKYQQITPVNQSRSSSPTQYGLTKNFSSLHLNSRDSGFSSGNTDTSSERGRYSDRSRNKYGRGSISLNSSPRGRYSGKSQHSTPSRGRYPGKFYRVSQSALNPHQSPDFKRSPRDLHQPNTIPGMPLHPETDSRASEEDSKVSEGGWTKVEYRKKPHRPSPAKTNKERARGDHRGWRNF

[7] = molecular target: T7, panel of 442 kinases (Homo sapiens, UniProt Q9P289); conditions: kinase MST4; for remaining activity at 1 µM: read-out: % of control at 1 µM
T7 construct: purchased Ambit Biosciences (scanMAXX KINOMEscan)
T7 sequence (Q9P289 whole entry): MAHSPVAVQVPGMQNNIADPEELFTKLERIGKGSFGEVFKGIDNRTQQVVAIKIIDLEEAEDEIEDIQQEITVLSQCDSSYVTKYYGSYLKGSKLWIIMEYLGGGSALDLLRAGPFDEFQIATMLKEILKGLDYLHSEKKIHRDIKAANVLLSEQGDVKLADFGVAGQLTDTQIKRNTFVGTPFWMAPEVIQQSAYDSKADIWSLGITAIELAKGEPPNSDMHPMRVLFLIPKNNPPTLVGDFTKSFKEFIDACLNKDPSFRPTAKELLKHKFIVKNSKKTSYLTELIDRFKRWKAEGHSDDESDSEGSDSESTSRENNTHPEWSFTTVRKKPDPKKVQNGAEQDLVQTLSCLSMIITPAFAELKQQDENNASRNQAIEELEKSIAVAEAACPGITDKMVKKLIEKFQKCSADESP

[8] = molecular target: T8, panel of 442 kinases (Homo sapiens, UniProt Q04759); conditions: kinase PRKCQ; for remaining activity at 1 µM: read-out: PRKCQ (% of control at 1 µM)
T8 construct: purchased Ambit Biosciences (scanMAXX KINOMEscan)
T8 sequence (Q04759 whole entry): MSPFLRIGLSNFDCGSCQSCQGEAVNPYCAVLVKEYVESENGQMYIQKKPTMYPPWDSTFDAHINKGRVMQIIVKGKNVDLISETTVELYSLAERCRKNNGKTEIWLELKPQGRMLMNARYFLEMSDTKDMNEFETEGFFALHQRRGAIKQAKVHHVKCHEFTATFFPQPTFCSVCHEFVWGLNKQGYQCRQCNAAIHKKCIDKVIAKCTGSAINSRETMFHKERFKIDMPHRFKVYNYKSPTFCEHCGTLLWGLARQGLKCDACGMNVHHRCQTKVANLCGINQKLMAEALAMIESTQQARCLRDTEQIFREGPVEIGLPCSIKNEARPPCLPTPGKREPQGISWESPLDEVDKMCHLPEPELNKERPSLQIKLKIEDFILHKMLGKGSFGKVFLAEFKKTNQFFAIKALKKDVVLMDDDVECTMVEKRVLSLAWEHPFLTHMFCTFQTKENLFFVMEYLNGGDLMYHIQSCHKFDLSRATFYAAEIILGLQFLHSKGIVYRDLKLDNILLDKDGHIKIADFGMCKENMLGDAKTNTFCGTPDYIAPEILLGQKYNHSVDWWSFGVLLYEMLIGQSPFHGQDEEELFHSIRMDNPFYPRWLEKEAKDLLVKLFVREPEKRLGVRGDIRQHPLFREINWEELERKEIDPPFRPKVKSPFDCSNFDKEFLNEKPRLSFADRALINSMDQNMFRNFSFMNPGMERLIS

[9] = 10 µM, read-out: % of control at 10 µM

SMILES	remaining activity at 1 µM [1]	remaining activity at 10 µM [1, 9]	remaining activity at 1 µM [2]	remaining activity at 10 µM [2, 9]	remaining activity at 1 µM [3]	remaining activity at 10 µM [3, 9]	remaining activity at 1 µM [4]	remaining activity at 10 µM [4, 9]	remaining activity at 1 µM [5]	remaining activity at 10 µM [5, 9]	remaining activity at 1 µM [6]	remaining activity at 10 µM ([6]; 10 µM, read-out: ZAK (% of control at 10 µM))	remaining activity at 1 µM [7]	remaining activity at 10 µM [7, 9]	remaining activity at 1 µM [8]	remaining activity at 10 µM ([8]; 10 µM, read-out: PRKCQ (% of control at 10 µM))
Nc1cc(C(F)(F)F)c(-c2cc(N3CCOCC3)nc(N3CCOCC3)n2)cn1 [Buparlisib]	100%	100%	100%	100%	82%	100%	100%	100%	100%	91%	85%	90%	100%	74%	91%	100%
Cn1c(=O)n(-c2ccc(C(C)(C)C#N)cc2)c2c3cc(-c4cnc5ccccc5c4)ccc3ncc21 [Dactolisib, 2-methyl-2-[4-(3-methyl-2-oxo-8-quinolin-3-yl-2,3-dihydroimidazo[4,5-c]quinolin-1-yl)-phenyl] propionitrile]					100%		90%		87%		55%		76%		85%	
COc1ncc(-c2ccc3nccc(-c4ccnnc4)c3c2)cc1NS(=O)(=O)c1ccc(F)cc1F [Omipalisib]	100%		99%		100%		100%		100%		81%		91%		100%	
FC(F)c1nc2ccccc2n1-c1nc(N2CCOCC2)nc(N2CCOCC2)n1 [ZSTK474, 2-(difluoromethyl)-1-[4,6-di(4-morpholinyl)-1,3,5-triazin-2-yl]-1H-benzimidazole]	100%		100%		94%		87%		96%		92%		68%		98%	
